One may read the IC50 as the concentration that inhibits the measured activity by half. In general, inhibition refers to how much of the control response was suppressed.

The test system of one series is Calf thymus DNA. Kind of series: Protective activity against bleomycin-iron complex-induced calf thymus DNA damage assessed as chromogen formation at 0.1 mg/ml after 1 hr. The class given is nucleic-acid assay. To be noted: Bos taurus.
For the next series, the system named is MCF7. Kind of series: Cytotoxicity against human MCF7 cells assessed as loss of cell monolayers after 96 hrs. The class given is functional, cell-based. To be noted: MCF7, 96 h.
The test system of another series is Brain. Kind of series: Antioxidant activity in rat brain/kidney homogenates assessed as inhibition of lipid peroxidation at 2 mM by […] method. The series is classed as functional, tissue-based.
Another series relates to Vero. Kind of series: Cytotoxicity against african green monkey Vero cells assessed as loss of cell monolayers after 96 hrs. The series is classed as cell-based. To be noted: Chlorocebus sabaeus.
A short description of series [1]: Cytotoxicity against mouse EAC assessed as dead cells at 1 mg/ml after 2 hrs using trypan blue staining by hemocytometer analysis. The series is classed as functional, Ehrlich.
The nature of series [2]: Toxicity in rat erythrocytes assessed as hemolysis at 2 mM. The series is classed as cell-based, Erythrocyte. To be noted: read-out: Activity.
Another series relates to HepG2. Description: Cytotoxicity against human HepG2 cells assessed as loss of cell monolayers after 96 hrs. To be noted: HepG2, 96 h. The class given is functional, cell-based.
Series [3] in a line: Cytotoxicity against human WI38 cells assessed as loss of cell monolayers after 96 hrs. The class given is cell-based. To be noted: WI-38, 96 h.
Series [4] in a line: Cytotoxicity against human WI38 cells assessed as cell viability at 10 ug/ml after 96 hrs relative to control. The series is classed as cell-based, WI-38. To be noted: read-out: Activity.
Series [5] is described as follows: Cytotoxicity against human WI38 cells assessed as cell viability at 50 ug/ml after 96 hrs relative to control. The series is classed as cell-based, WI-38. To be noted: read-out: Activity.
Series [6] can be described thus: Cytotoxicity against human WI38 cells assessed as cell viability at 100 ug/ml after 96 hrs relative to control. The class given is cell-based, WI-38. To be noted: read-out: Activity.
A short description of series [7]: Cytotoxicity against mouse EAC assessed as dead cells at 25 ug/ml after 2 hrs using trypan blue staining by hemocytometer analysis. The series is classed as functional, Ehrlich.

≈ marks a conversion by molar mass, not a printed value. Calls of active or inactive are those of the source. The calls are words filed in the database; no cut-off is given here.

`C=C1C[C@@H](O)[C@@H]([C@H](C)CCC=C(C)C)[C@@H](O)[C@@H]2C(C)=CC[C@@H]12`: in the series with Calf thymus DNA, the result was Active. Moreover, the IC50 with MCF7 came to 68.2 µg/mL (≈ 224 µM); in the series on Vero, 72.3 µg/mL (≈ 237 µM); in the series on HepG2, 81.2 µg/mL (≈ 267 µM); in [3], 62.6 µg/mL (≈ 206 µM). In addition, the inhibition with Brain was 61.6%. Further, the Activity in [1] turned out to be 60.9%. In addition, the hemolysis at 2000 µM in series [2] came to 1.1%.

As for `C=C1CC[C@H](OC(C)=O)[C@]2(C)CCC3=C(C(C)C)CC[C@@]3(C)C[C@@]12O` [AMIJIOL ACETATE], in the series with Calf thymus DNA, the result was Active. In addition, the IC50 was found to be 21.2 µg/mL in the series with MCF7, 20.5 µg/mL with Vero, 25.1 µg/mL with HepG2 and 14.2 µg/mL in series [3]. Moreover, in the series with Brain, the inhibition stood at 83.3%. Also, in [4], the viability at 96 h, 10 ug/ml was 65%. Moreover, the viability at 96 h, 50 ug/ml in series [5] stood at 12%. Besides, the Activity in series [1] was 85.9%. The viability at 96 h, 100 ug/ml in series [6] amounted to 0%. Moreover, the hemolysis at 2000 µM in series [2] was determined as 0.7%.

Take `C=C1CC[C@H](O)[C@]2(C)C[C@H](OC(C)=O)C3=C(C(C)C)[C@H](OC(C)=O)C[C@@]3(C)C[C@@]12O` [AMIJIOL-7,10-DIACETATE]: in the series on Calf thymus DNA, the outcome was Active. The IC50 turned out to be 30.5 µg/mL (≈ 72.5 µM) with MCF7, 21.4 µg/mL (≈ 50.9 µM) in the series on Vero, 47 µg/mL (≈ 112 µM) in the series with HepG2 and 16.2 µg/mL (≈ 38.5 µM) in [3]. Besides, the inhibition in the series with Brain amounted to 80.2%. Further, in [1], the Activity was 71.2%. Also, in [2], the hemolysis at 2000 µM was 1.4%.

Regarding `C=C1CC[C@H](O)[C@]2(C)CCC3=C(C(C)C)CC[C@@]3(C)C[C@@]12O` [AMIJIOL], the result in the series on Calf thymus DNA was Active. Further, the IC50 in the series with MCF7 was 75.5 µg/mL (≈ 248 µM); in the series with Vero it was 76.4 µg/mL (≈ 251 µM); in the series with HepG2 it was 70.2 µg/mL (≈ 231 µM); in series [3], 84.6 µg/mL (≈ 278 µM). For the same molecule, the inhibition with Brain came out at 59.2%. For the same molecule, the Activity in series [1] is 56%. For the same molecule, in series [2], the hemolysis at 2000 µM stood at 0.5%.

In the case of `O=C1O[C@H]([C@@H](O)CO)C(O)=C1O` [ASCORBIC ACID], in the series on Brain, the inhibition stood at 88.6%. Also, the hemolysis at 2000 µM in series [2] is 0.85%.

On to `CC(C)=CCC[C@@H](C)[C@H]1[C@@H](O)[C@@H]2C(C)=CC[C@H]2[C@@](C)(O)C[C@H]1O` [DICTYOL C], for which the outcome with Calf thymus DNA was inactive. For the same molecule, the IC50 in the series with MCF7 stood at 140 µg/mL (≈ 436 µM); in the series with Vero, 161 µg/mL (≈ 498 µM); with HepG2 it was 101 µg/mL (≈ 312 µM); in [3], 111 µg/mL (≈ 343 µM). Besides, the inhibition with Brain was determined as 57.7%. In addition, the Activity in [1] was found to be 18%. Further, in series [2], the hemolysis at 2000 µM worked out at 1.1%.

As for `C/C1=C\[C@@H](O)C/C(C)=C/C[C@]2(C)CCC(C(C)C)=C2CC1` [DOLABELLATRIENOL], the outcome in the series on Calf thymus DNA was inactive. Moreover, the IC50 was found to be 150 µg/mL (≈ 522 µM) in the series with MCF7, 121 µg/mL (≈ 418 µM) in the series with Vero, 102 µg/mL (≈ 355 µM) in the series with HepG2 and 101 µg/mL (≈ 349 µM) in series [3]. The inhibition in the series with Brain was 24.4%. Also, the Activity in series [1] came to 15.1%. Besides, the hemolysis at 2000 µM in [2] worked out at 5.75%.

As to `O=c1[nH]cc(F)c(=O)[nH]1` [FLUOROURACIL], the Activity in series [7] was 99.5%. In addition, the IC50 was 2.3 µg/mL (≈ 17.7 µM) in the series on MCF7, 6.5 µg/mL (≈ 50 µM) in the series on Vero, 8.6 µg/mL (≈ 66.1 µM) in the series on HepG2 and 3.2 µg/mL (≈ 24.6 µM) in series [3].

In the case of `CC(C)=CCCC(C)C1CC/C(C)=C/CCC2COC(O)C21` (configuration not stated) [ISODICTYOHEMIACETAL], in the series with Calf thymus DNA, the result was Active. The IC50 in the series on MCF7 was found to be 75.5 µg/mL (≈ 246 µM); with Vero it was 76.4 µg/mL (≈ 249 µM); with HepG2, 70.2 µg/mL (≈ 229 µM); in series [3], 84.6 µg/mL (≈ 276 µM). Also, the inhibition in the series with Brain was 57.4%. Also, the Activity in [1] is on record as 59.1%. The hemolysis at 2000 µM in series [2] stood at 0.75%.

As for `CC(C)=CCC[C@@H](C)[C@@H]1CC=C(C)[C@@H]2CC=C(C)[C@H]2[C@@H]1O` [ISOPACHYDICTYOL A], in the series with Calf thymus DNA, the result was Active. The IC50 amounted to 39.2 µg/mL (≈ 136 µM) with MCF7, 28.3 µg/mL (≈ 98.1 µM) in the series on Vero, 39.2 µg/mL (≈ 136 µM) in the series on HepG2 and 22.4 µg/mL (≈ 77.6 µM) in [3]. Besides, the inhibition with Brain was found to be 59.9%. In addition, the Activity in series [1] came to 48.4%. For the same molecule, the hemolysis at 2000 µM in series [2] came to 1.4%.

For the molecule `C=C1CC[C@@H]([C@H](C)CCC=C(C)C)[C@@H](O)[C@@H]2C(C)=CC[C@@H]12` [PACHYDICTYOL A], in the series on Calf thymus DNA, the result was Active. For the same molecule, the IC50 in the series with MCF7 turned out to be 37.5 µg/mL (≈ 130 µM); with Vero it was 27.4 µg/mL (≈ 95 µM); with HepG2, 40.2 µg/mL (≈ 139 µM); in series [3] it was 24.6 µg/mL (≈ 85.3 µM). For the same molecule, the inhibition in the series on Brain was determined as 50.2%. For the same molecule, the Activity in series [1] is 42.9%. The hemolysis at 2000 µM in [2] is 2.45%.

Values taken from ChEMBL document CHEMBL1649394, “Cytotoxic and protective DNA damage of three new diterpenoids from the brown alga Dictoyota dichotoma” (Eur J Med Chem, 2011).
